Source: US9944721B2, “Polysialic acid and use for treatment of neurodegenerative and neuroinflammatory diseases” (RHEINISCHE FRIEDRICH-WILHELMS UNIVERSITÄT BONN, priority 2013, dated 2018)

Tests used:
Type in all cases: cell-based
[1] = test system: human microglial cells stimulated with fibrillary amyloid-β1-42; experiment: Amyloid-β1-42 induced superoxide release of human microglia (DHE); settings: repeat, FIG. 4B; PSA-20 1.5 μM; Trolox 40 μM; SOD1 20 μg/ml; Aβ 10 μM
Experimental: The human microglial cell line was treated with human Alzheimer's disease associated fibrillary amyloid-beta peptide (Aβ) to mimic inflammatory signalling of Alzheimer's disease brain tissue. To obtain fibrillary components of Aβ, the synthetic amyloid-beta peptide (amyloid-beta 1-42, Bachem/Brucker, 10 μM) was preincubated at 37° C. for at least three days. The human microglial cells were treated with the different concentrations of 0.15 μM, 0.5 μM, or 1.5 μM of low molecular weight polysialic acid (PSA-20) for 60 minutes followed by incubation for 15 minutes with fibrillary Aβ. Then, 30 μM dihydroethidium (DHE) was added and incubated at 37° C. for 15 minutes for measurement of superoxide anion radical production. Cells were fixed with 4% paraformaldehyde plus 0.25% glutaraldehyde and analyzed by confocal microscopy. For the quantification of DHE staining intensity six pictures of each experiment were obtained and analyzed by ImageJ software (NIH). The background was subtracted and the mean values of the staining intensities were compared. Cells were fixed and the intensity of DHE was quantified by confocal microscopy.
To confirm the specificity of the DHE measurement, the determination of the effect of PSA-20 on superoxide production in human microglial cells was repeated. As a control the radical scavenger Trolox, a water-soluble vitamin E analogue, was added to the system. Furthermore, as additional control superoxide dismutase-1 (SOD1) was added into the medium. Superoxide should no longer be detectable by the DHE dye after successful transformation of superoxide by SOD1.
Human microglial cells were cultured alone and production of reactive oxygen species was analyzed after treatment with the Alzheimer's disease plaques associated fibrillary amyloid-β1-42. To measure the relative production of superoxide by the microglial cells, cells were plated in 4-chamber culture dishes. After 24 hours human microglial cells were treated with 1.5 μM of low molecular weight polysialic acid (PSA-20) for 60 minutes followed by incubation for 15 minutes with 10 μM fibrillary amyloid-β1-42. Control dishes were treated with either 1.5 μM PSA-20 and 40 μM Trolox or 1.5 μM PSA-20 and 20 μg/ml superoxide dismutase-1 (SOD1, Serva). Then, cells were washed 2-times with Krebs-HEPES-buffer and afterwards incubated for 15 minutes with 30 μM DHE solution (diluted in Krebs-HEPES-buffer). Finally cells were washed 2-times with Krebs-HEPES-buffer and fixed for 15 minutes with 0.25% glutaraldehyde and 4% PFA. In total, six images were randomly collected per experimental group by confocal laser scanning microscopy (Fluoview 1000, Olympus). All cells of the collected images were analyzed by Image J software (NIH).

human microglial cells = experiment: Phagocytosis associated oxidative burst: neural debris triggered superoxide release (DHE); settings: control experiment; 40 μM Trolox or 20 μg/ml SOD1
Experimental: To measure the relative production of superoxide by the microglial cells, human microglial cells were plated in 4-chamber culture dishes. After 24 hours cells were treated with 5 mg/ml neural debris for 15 minutes with or without 1 hour PSA-20 pre-incubation at concentrations of 0.15 μM, 0.5 μM or 1.5 μM. Then, cells were washed 2-times with Krebs-HEPES-buffer. To detect the release of superoxide the cells were afterwards incubated for 15 minutes with 30 μM superoxide-sensitive fluorescent dye dihydroethidium (DHE) solution diluted in Krebs-HEPES-buffer. Finally cells were washed 2-times with Krebs-HEPES-buffer and fixed for 15 minutes with 0.25% glutaraldehyde and 4% PFA. In total, six images were randomly collected per experimental group by confocal laser scanning microscopy (Fluoview 1000, Olympus). All cells of the collected images were analyzed by Image J software (NIH).
To confirm the effect, Trolox as scavenger of superoxide and superoxide dismutase-1 (SOD1) as modifier of superoxide were used in a control experiment as described above using 1.5 μM of PSA-20 but adding either 40 μM Trolox or 20 μg/ml (SOD1) into the medium. […] As can be taken from the FIG. 9C, the radical scavenger Trolox and the superoxide dismutase SOD1 neutralized the neural debris triggered superoxide release and as controls confirmed that DHE detected an extracellular production of superoxide.

[2] = test system: human microglial line derived from induced pluripotent stem cells (expressing Siglec-11); experiment: MTT cell viability of human microglia treated with sialic acid forms; settings: for metabolic activity of the microglial cells (MTT, normalized to cell number): 24 hours treatment, 0.15 μM, 0.5 μM and 1.5 μM, FIG. 2B; for Intact viability of human microglia: summary of Example 3, MTT, 24 hours
Experimental: A human microglial line derived from induced pluripotent stem cells as described in WO 2010/125110 was used to study the effect of sialic acid forms with different chain length. Human microglial cells were cultured on 5 μg/ml poly-L-lysin (PLL, Sigma)-coated dishes in N2-medium containing DMEM/F12 culture medium (Gibco) supplemented with 1% N2 (Invitrogen), 0.48 mM L-glutamine (Gibco) and optionally 100 μg/ml penicillin/streptomycin (Gibco). Cells were cultured with high density and splitted 1:2 when required.
The effect of different length and fractions of oligosialic acids and polysialic acids on the human microglial lines were analyzed by determination of cell viability normalized to the cell number and after treatment with monomeric sialic acid (SA, molecular weight of 0.3 kDa, Nacalai Tesque ING, Japan) and sialic acids consisting of 3 monomers (Tri-SA; molecular weight of 0.9 kDa, Nacalai Tesque ING, Japan) and sialic acids consisting of 6 monomers (Hexa-SA; molecular weight of 1.9 kDa, Nacalai Tesque ING, Japan), PSA with a number of sialic acid monomers between 14 and 26 (PSA-20; low molecular weight of PSA between 4.3 and 8 kDa for >90% of the substance) and PSA with a length between 46 and 110 of sialic acid monomers (PSA-60; medium molecular weight of PSA between 14.2 and 34 kDa for >90% of the substance).
The microglial cells were cultured in medium as described above and treated in culture with the different sialic acid forms.
Cell viability was determined by the MTT (3-(4,5-Dimethylthiazol-2-yl)-2,5-diphenyltetrazolium bromide, Millipore) assay after 24 hours treatment with distinct sialic acid forms with different chain length and normalized to the cell number. The light absorbance of the purple formazan in living cells was determined by a spectrophotometer at a wavelength of 570 nm (Perkin Elmer, Envision Multiplate Reader).

[3] = test system: LPS-activated human microglia; experiment: LPS-induced TNF-alpha gene transcription in human microglia (qRT-PCR); settings: LPS 1 μg/ml, 24 hours; for LPS-induced gene transcription of TNF-alpha: 0.15 μM, 0.5 μM and 1.5 μM, FIG. 3; for Anti-inflammatory effect on TNF-alpha of LPS-activated human microglia: summary of Example 4
Experimental: To analyse whether polysialic acid might interfere with a pro-inflammatory phenotype of human microglia, cultured human microglia were activated with lipopolysaccharides (LPS) and the effect of the distinct sialic acid forms including fractions of oligosialic and polysialic acid on the gene transcription of the pro-inflammatory cytokine tumor necrosis factor-alpha induced by the bacterial toxin LPS was determined. A human microglial line derived from induced pluripotent stem cells as described in WO 2010/125110 was used to study the effect of sialic acid forms with different chain length. Human microglial cells were cultured on 5 μg/ml poly-L-lysin (PLL, Sigma)-coated dishes in N2-medium containing DMEM/F12 culture medium (Gibco) supplemented with 1% N2 (Invitrogen), 0.48 mM L-glutamine (Gibco) and optionally 100 μg/ml penicillin/streptomycin (Gibco). Cells were cultured with high density and splitted 1:2 when required. The human induced pluripotent stem cell derived microglia line was treated with lipopolysaccharides (LPS, 1 μg/ml, Invivogen) and sialic acid forms with different chain length for 24 hours. Gene transcripts for tumor necrosis factor-α (TNF-alpha) were determined by quantitative RT-PCR and normalized to GAPDH. In detail, RNA isolation was performed using RNeasy Mini Kit (Qiagen) and transcription with the SuperScript First-Strand Synthesis System (Invitrogen). Quantitative RT-PCR with specific oligonucleotides (GAPDH: […] (SEQ ID NO: 1) and […] (SEQ ID NO: 2); TNFα: […] (SEQ ID NO: 3) and […] (SEQ ID NO: 4)) was performed using SYBR green PCR Master Mix with the Mastercycler epgradients S (Eppendorf). Results were normalized to GAPDH. Quantification using the delta-CT method was carried out.

Row | Compound | amyloid-β1-42 induced stimulation of the superoxide production [1] | neural debris triggered superoxide release (human microglial cells) | metabolic activity of the microglial cells (MTT, normalized to cell number) [2] | Intact viability of human microglia [2] | LPS-induced gene transcription of TNF-alpha [3] | Anti-inflammatory effect on TNF-alpha of LPS-activated human microglia [3]
1 | SOD1: superoxide dismutase-1 (Serva), added to the medium as a control | neutralized | neutralized | – | – | – | –
2 | CC(=O)N[C@H]1[C@H]([C@H](O)[C@H](O)CO)OC(O)(C(=O)O)C[C@@H]1O (stereo partly drawn) [SA, N-acetylneuraminic acid] | – | – | did not affect the metabolic activity | Yes | did not significantly change | No
3 | Cc1c(C)c2c(c(C)c1O)CCC(C)(C(=O)O)O2 (stereo not drawn) [Trolox, 6-hydroxy-2,5,7,8-tetramethylchroman-2-carboxylic acid, reference compound] | scavenged | neutralized | – | – | – | –
4 | α2.8-polysialic acid [PSA-180] | – | – | significantly reduced | No | no significant anti-inflammatory effect | No
